Drawing on patent US12195473B2, “KRAS mutant protein inhibitors” (JACOBIO PHARMACEUTICALS CO., LTD, priority 2019, dated 2025), this text covers IC50 for 22 molecules.

This test deals with HIS-KRAS (G12C). The format is biochemical. The note with it: read-out: SOS1 catalyzed nucleotide exchange IC50.
[1] abbreviates: GDP-loaded HIS-KRAS (G12C), 1 hour pre-incubation with compound, TR-FRET.

Like-named read-outs stand apart in the source and are kept apart here.

For `C=CC(=O)N1[C@H](C)CN(c2c(C#N)c(=O)n(-c3c(C)ccnc3C(C)C)c3nc(-c4c(F)c(N)c(F)c(F)c4F)c(Cl)cc23)C[C@@H]1C` [Compound 8, 4-((3S,5R)-4-acryloyl-3,5-dimethylpiperazin-1-yl)-7-(3-amino-2,4,5,6-tetrafluorophenyl)-6-chloro-1-(2-isopropyl-4-methylpyridin-3-yl)-2-oxo-1,2-dihydro-1,8-naphthyridine-3-carbonitrile], the IC50 under setting [1] amounted to 6.68 nM.
Turning to `C=CC(=O)N1CCN(c2c(C#N)c(=O)n(-c3c(C)ccnc3C(C)C)c3nc(-c4c(N)c(F)c(F)c(F)c4F)c(Cl)cc23)C[C@H]1C` [Compound 9, 4-((R)-4-acryloyl-3-methylpiperazin-1-yl)-7-(2-amino-3,4,5,6-tetrafluorophenyl)-6-chloro-1-(2-isopropyl-4-methylpyridin-3-yl)-2-oxo-1,2-dihydro-1,8-naphthyridine-3-carbonitrile], the concentration for half-maximal inhibition (IC50) under setting [1] is 2.3 nM.
Take `C=CC(=O)N1CCN(c2c(C#N)c(=O)n(-c3c(C)ccnc3C(C)C)c3nc(-c4c(F)c(F)c(F)c(N)c4Cl)c(Cl)cc23)CC1` (single isomer, unassigned) [Compound 12-1, 4-(4-acryloylpiperazin-1-yl)-7-(3-amino-2-chloro-4,5,6-trifluorophenyl)-6-chloro-1-(2-isopropyl-4-methylpyridin-3-yl)-2-oxo-1,2-dihydro-1,8-naphthyridine-3-carbonitrile]: the IC50 under setting [1] came to 16 nM.
The same measure, in the same setting: the result for `C=CC(=O)N1CCN(c2c(C#N)c(=O)n(-c3c(C)ccnc3C(C)C)c3nc(-c4c(F)c(N)c(F)c(F)c4F)c(Cl)cc23)CC1` [Compound 6, 4-(4-acryloylpiperazin-1-yl)-7-(3-amino-2,4,5,6-tetrafluorophenyl)-6-chloro-1-(2-isopropyl-4-methylpyridin-3-yl)-2-oxo-1,2-dihydro-1,8-naphthyridine-3-carbonitrile] reads 1.51 nM; that for `C=CC(=O)N1[C@H](C)CN(c2c(C#N)c(=O)n(-c3c(C)ccnc3C(C)C)c3nc(-c4c(N)c(F)c(F)c(F)c4F)c(Cl)cc23)C[C@@H]1C` (single isomer, unassigned) [Compound 13-1], 2.73 nM.
`C=CC(=O)N1[C@H](C)CN(c2c(C#N)c(=O)n(-c3c(C)ccnc3C(C)C)c3nc(-c4c(F)c(F)c(F)c(N)c4Cl)c(Cl)cc23)C[C@@H]1C` [Compound 7, 4-((3S,5R)-4-acryloyl-3,5-dimethylpiperazin-1-yl)-7-(3-amino-2-chloro-4,5,6-trifluorophenyl)-6-chloro-1-(2-isopropyl-4-methylpyridin-3-yl)-2-oxo-1,2-dihydro-1,8-naphthyridine-3-carbonitrile]: the IC50 under setting [1] was 14.9 nM.
As to `C=CC(=O)N1CCN(c2c(C#N)c(=O)n(-c3c(C)ccnc3C(C)C)c3nc(-c4c(F)c(F)c(F)c(N)c4Cl)c(Cl)cc23)[C@@H](C)C1` (single isomer, unassigned) [Compound 15-2], the IC50 under setting [1] came out at 83.9 nM.
Regarding `C=CC(=O)N1CCN(c2c(C#N)c(=O)n(-c3c(C)ccnc3C(C)C)c3nc(-c4c(F)c(F)c(F)c(N)c4Cl)c(Cl)cc23)CC1` [Compound 12, 4-(4-acryloylpiperazin-1-yl)-7-(3-amino-2-chloro-4,5,6-trifluorophenyl)-6-chloro-1-(2-isopropyl-4-methylpyridin-3-yl)-2-oxo-1,2-dihydro-1,8-naphthyridine-3-carbonitrile], the IC50 is 3.85 nM.
As for `C=CC(=O)N1[C@H](C)CN(c2c(C#N)c(=O)n(-c3c(C)ccnc3C(C)C)c3nc(-c4ccccc4F)c(Cl)cc23)C[C@@H]1C` [Amgen 7.3, 4-((3S,5R)-4-acryloyl-3,5-dimethylpiperazin-1-yl)-6-chloro-7-(2-fluorophenyl)-1-(2-isopropyl-4-methylpyridin-3-yl)-2-oxo-1,2-dihydro-1,8-naphthyridine-3-carbonitrile, reference compound], the IC50 under setting [1] stood at 10.5 nM.
On the same count and under the same terms, for `C=CC(=O)N1CCN(c2c(C#N)c(=O)n(-c3c(C)ccnc3C(C)C)c3nc(-c4c(F)c(F)c(F)c(N)c4Cl)c(Cl)cc23)[C@@H](C)C1` (single isomer, unassigned) [Compound 15-1] the value was 6.87 nM.
Regarding `C=CC(=O)N1CCN(c2c(C#N)c(=O)n(-c3c(C)ccnc3C(C)C)c3nc(-c4c(N)cccc4F)c(Cl)cc23)CC1` [Compound A, 4-(4-acryloylpiperazin-1-yl)-7-(2-amino-6-fluorophenyl)-6-chloro-1-(2-isopropyl-4-methylpyridin-3-yl)-2-oxo-1,2-dihydro-1,8-naphthyridine-3-carbonitrile, reference compound], the IC50 under setting [1] worked out at 1.69 nM.
In the case of `C=CC(=O)N1[C@H](C)CN(c2c(C#N)c(=O)n(-c3c(C)ccnc3C(C)C)c3nc(-c4c(N)c(F)c(F)c(F)c4F)c(Cl)cc23)C[C@@H]1C` [Compound 13, 4-((3S,5R)-4-acryloyl-3,5-dimethylpiperazin-1-yl)-7-(2-amino-3,4,5,6-tetrafluorophenyl)-6-chloro-1-(2-isopropyl-4-methylpyridin-3-yl)-2-oxo-1,2-dihydro-1,8-naphthyridine-3-carbonitrile], the IC50 under setting [1] turned out to be 6.63 nM.
For the molecule `C=CC(=O)N1CCN(c2c(C#N)c(=O)n(-c3c(C)ccnc3C(C)C)c3nc(-c4c(N)c(Cl)c(F)c(F)c4F)c(Cl)cc23)CC1` [Compound 3, 4-(4-acryloylpiperazin-1-yl)-7-(2-amino-3-chloro-4,5,6-trifluorophenyl)-6-chloro-1-(2-isopropyl-4-methylpyridin-3-yl)-2-oxo-1,2-dihydro-1,8-naphthyridine-3-carbonitrile], the IC50 under setting [1] stood at 3.67 nM.
Take `C=CC(=O)N1CCN(c2c(C#N)c(=O)n(-c3c(C)ccnc3C(C)C)c3nc(-c4c(N)c(F)c(F)c(F)c4F)c(Cl)cc23)[C@@H](C)C1` (single isomer, unassigned) [Compound 11-2]: the IC50 under setting [1] came to 2.11 nM.
The same measure, in the same setting: the result for `C=CC(=O)N1CCN(c2c(C#N)c(=O)n(-c3c(C)ccnc3C(C)C)c3nc(-c4c(N)c(F)c(F)c(F)c4F)c(Cl)cc23)C[C@H]1C` [Compound 14, 4-((R)-4-acryloyl-3-methylpiperazin-1-yl)-7-(2-amino-3,4,5,6-tetrafluorophenyl)-6-chloro-1-(2-isopropyl-4-methylpyridin-3-yl)-2-oxo-1,2-dihydro-1,8-naphthyridine-3-carbonitrile] reads 3.56 nM; that for `C=CC(=O)N1CCN(c2c(C#N)c(=O)n(-c3c(C)ccnc3C(C)C)c3nc(-c4c(N)c(F)c(F)c(F)c4Cl)c(Cl)cc23)C[C@H]1C` (single isomer, unassigned) [Compound 10-1], 43.9 nM; that for `C=CC(=O)N1CCN(c2c(C#N)c(=O)n(-c3c(C)ccnc3C(C)C)c3nc(-c4c(N)c(Cl)c(F)c(Cl)c4F)c(Cl)cc23)CC1` [Compound 4, 4-(4-acryloylpiperazin-1-yl)-7-(2-amino-3,5-dichloro-4,6-difluorophenyl)-6-chloro-1-(2-isopropyl-4-methylpyridin-3-yl)-2-oxo-1,2-dihydro-1,8-naphthyridine-3-carbonitrile], 3.48 nM.
For the molecule `C=CC(=O)N1CCN(c2c(C#N)c(=O)n(-c3c(C)ccnc3C(C)C)c3nc(-c4c(N)c(F)c(F)c(F)c4Cl)c(Cl)cc23)C[C@H]1C` (single isomer, unassigned) [Compound 10-2], the IC50 under setting [1] came to 4.16 nM.
Consider `C=CC(=O)N1[C@H](C)CN(c2c(C#N)c(=O)n(-c3c(C)ccnc3C(C)C)c3nc(-c4c(N)c(F)c(F)c(F)c4F)c(Cl)cc23)C[C@@H]1C` (single isomer, unassigned) [Compound 13-2], for which, under setting [1], the concentration for half-maximal inhibition (IC50) turned out to be 11.5 nM.
Regarding `C=CC(=O)N1CCN(c2c(C#N)c(=O)n(-c3c(C)ccnc3C(C)C)c3nc(-c4c(N)c(F)c(F)c(F)c4F)c(Cl)cc23)[C@@H](C)C1` (single isomer, unassigned) [Compound 11-1], the IC50 under setting [1] was 29.6 nM.
On to `C=CC(=O)N1CCN(c2c(C#N)c(=O)n(-c3c(C)ccnc3C(C)C)c3nc(-c4c(Cl)c(N)c(F)c(F)c4Cl)c(Cl)cc23)CC1` [Compound 2, 4-(4-acryloylpiperazin-1-yl)-7-(3-amino-2,6-dichloro-4,5-difluorophenyl)-6-chloro-1-(2-isopropyl-4-methylpyridin-3-yl)-2-oxo-1,2-dihydro-1,8-naphthyridine-3-carbonitrile], for which the IC50 under setting [1] came out at 6.66 nM.
As to `C=CC(=O)N1CCN(c2c(C#N)c(=O)n(-c3c(C)ccnc3C(C)C)c3nc(-c4c(F)c(F)c(F)c(N)c4Cl)c(Cl)cc23)CC1` (single isomer, unassigned) [Compound 12-2, 4-(4-acryloylpiperazin-1-yl)-7-(3-amino-2-chloro-4,5,6-trifluorophenyl)-6-chloro-1-(2-isopropyl-4-methylpyridin-3-yl)-2-oxo-1,2-dihydro-1,8-naphthyridine-3-carbonitrile], the IC50 was found to be 2.01 nM.

For orientation: IC50 means the concentration that gives 50% inhibition.
